We go through seven compounds from paper PMC8200237, “New Oxaliplatin-Pyrophosphato Analogs with Improved In Vitro Cytotoxicity” (Molecules, 2021).

The subject of series [1] is PC3 human prostate cancer cells. Description: MTT cell viability assay, PC3. In kind it is cell-based. The conditions noted are these: MTT test, 72 h; read-out: IC50 (µM) ± S.D. PC3. The method, then:
(§1) The in vitro cytotoxicity of the Pt-pyrophosphato complexes (1, 2, 3, and 4) was evaluated on a panel of human cancer cell lines and compared to that of cisplatin and oxaliplatin. Cell lines representative of colon (HCT-116), prostate (PC3), breast (MDA-MB231), and […] (OV2008) carcinomas were included.
(§2) The number of living cells was evaluated by the 3-(4,5-dimethylthiazol-2-yl)-2,5-diphenyltetrazolium bromide (MTT) assay. Briefly, HCT116 human colon cancer cells, PC3 human prostate cancer cells, OV2008 human ovarian cancer cells, and MDA MB 231 human breast cancer cells were plated in 96-well plates at a density of ~5000 cells/well. After one day of incubation at 37 °C in a humid atmosphere with 5% CO2, the culture medium was replaced with 100 µL of fresh medium (control cells) or medium containing different concentrations of the test compounds in the range 1.56–100 µM. Untreated cells were used as positive controls. After the incubation period of 72 h, 10 µL of a 0.5% (w/v) MTT/PBS solution was added to each well and the incubation was prolonged for a further 2 h. After this period, the medium was removed and replaced with 100 µL of DMSO. The absorbance of each well was measured by a microplate reader (Wallac Victor3, 1420 Multilabel Counter, Perkin-Elmer, Singapore). Each compound concentration was tested in triplicate, and results were presented as percentage of the control value. IC50 values were calculated using non-linear regression in GraphPad Prism 5.01 (San Diego, CA, USA). […]
(§3) Table S1. In vitro cytotoxicitya […]
(§4) aCells (3–5·10^3 cells […]) were treated for 72 h with increasing concentrations of the tested compounds. Cytotoxicity was assessed by the MTT test. IC50 values were calculated by the four parameter logistic model (p < 0.05). S.D. = standard deviation. OXP = oxaliplatin, CDDP = cisplatin.
(Tetrazolium assays rely on reduction of a dye to a coloured formazan, in cell work by metabolically active cells.)

Series [2] can be described thus: Stability in physiological conditions by 31P NMR (pH 7.4). In kind it is physicochemical. The conditions noted are these: D2O, HEPES buffer 50 mM, pH 7.4, 120 mM NaCl, 37 °C. As to the method:
To investigate the stability of 1 and 2 in physiological-like conditions, their solutions in D2O containing HEPES buffer (50 mM, pH = 7.4) and NaCl (120 mM) were monitored at 37 °C by ^31P NMR spectroscopy. […] However, overall, also compound 2 can be considered stable for the time necessary to perform the in vitro cytotoxicity tests (72 h, see following section).
(§5) The stability of compounds 1 and 2 at 37 °C in buffered solutions was assessed by ^31P NMR spectroscopy. Each compound (~2 mg) was dissolved in 0.8 mL of D2O containing 50 mM 4-(2-hydroxyethyl)-1-piperazineethanesulfonic acid) (HEPES) buffer (pH* = 7.4 or pH* = 6.5) and 120 mM NaCl. The resulting solutions were transferred into NMR tubes and maintained at 37 °C. ^31P NMR spectra were recorded from time to time over a period of one month.

Series [3] is described as follows: Stability in acidic environment by 31P NMR (pH* 6.5). The format is physicochemical. The conditions noted are these: D2O, HEPES buffer 50 mM, pH* 6.5, 120 mM NaCl, 37 °C. As to the method: To simulate the acidic environment surrounding cancer tissues, the stability of 1 and 2 was also investigated at pH* = 6.5 and 37 °C by ^31P NMR spectroscopy.
as §5

The nature of series [4]: 31P NMR chemical shift/pH titration, acidity constants. In kind it is physicochemical. The conditions noted are these: D2O, 31P NMR titration; for pKa1 (first inflection point, pH*): first deprotonation step; for pKa2 (second inflection point, pH*): second deprotonation of coordinated pyrophosphate. As to the method:
The pH titration of complexes 1 and 2 was carried on by recording ^31P NMR spectra at different pH* values (Figure 5).
Acidity constants for complexes 1 and 2 were determined by ^31P NMR chemical shift/pH titrations. Either compound 1 or 2 (0.0047 mmol) was dissolved in 0.550 mL of D2O and transferred into an NMR tube. The pH* of the sample was adjusted to the required value by addition of DClO4 (10, 1.0, 0.5, 0.1, or 0.05 M) or NaOD (1.0, 0.5, 0.1, or 0.05 M) solutions, and the pH* value was measured by using a 3 mm diameter electrode for NMR tubes. No control of the ionic strength was performed. The pH titration curves were fitted to the Henderson−Hasselbalch equation using the program KaleidaGraph (version 3.5, Synergy Software, Reading, PA, USA).

Series [5] concerns MDA MB 231 human breast cancer cells. Kind of series: MTT cell viability assay, MDA MB 231. In kind it is cell-based. The conditions noted are these: MTT test, 72 h; read-out: IC50 (µM) ± S.D. MDAMB231. The method, then: as §1, §2, §3, §4
For series [6], the system named is panel of four human cancer cell lines. Description: MTT cytotoxicity, average over the four cell lines. The format is cell-based. The conditions noted are these: average over HCT116, PC3, OV2008, MDAMB231; MTT test, 72 h; read-out: IC50 (µM) ± S.D. Average. The method, then:
as §1
From this point of view, oxaliplatin represents a better reference compound, with the bidentate oxalato ligand being more similar to the bidentate pyrophosphato ligand.
as §2, §3, §4

Series [7] has as its system HCT116 human colon cancer cells. Kind of series: MTT cell viability assay, HCT116. In kind it is cell-based. The conditions noted are these: MTT test, 72 h; read-out: IC50 (µM) ± S.D. HCT116. As to the method:
as §1, §2, §3, §4

Series [8] deals with OV2008 human cervical cancer cells. Kind of series: MTT cell viability assay, OV2008. In kind it is cell-based. The conditions noted are these: MTT test, 72 h; read-out: IC50 (µM) ± S.D. OV2008. As to the method:
as §1, §2, §3, §4

For series [9] the following is noted: cited from earlier work.
The conditions of series [10]: cited from earlier work. This is another data set of the same source.
The subject of the next series is HCT116 cells. Description: Annexin V/PI apoptosis assay by flow cytometry. The format is cell-based, human. As to the method:
In order to obtain information on tumor cells’ death, the Annexin V/propidium iodide (PI) assay was used in flow cytometry analyses. Annexin V provides a very sensitive method for detecting cellular apoptosis, while PI is commonly used to detect necrotic or late apoptotic cells (when positive to Annexin too). The FITC Annexin V staining was carried out after 24 and 48 h of incubation of HCT116 cells with the Pt-pyrophosphato complexes (1–4) or oxaliplatin/cisplatin (used as reference compounds) at the IC50 concentrations (Supplementary Materials, Table S1). The two-dimensional dot plots can be divided into four quadrants, corresponding to: (i) viable cells, which are negative to both probes (lower left quadrant; PI/FITC −/−), (ii) early apoptotic cells, which are PI-negative and Annexin V-positive (lower right quadrant; PI/FITC −/+), (iii) late apoptotic cells, which are Annexin- and PI-positive (upper right quadrant; PI/FITC +/+), and (iv) necrotic cells, which are PI-positive and Annexin-negative (upper left quadrant; PI/FITC +/−).
The Annexin V/PI assay was conducted as previously described in order to investigate the mechanism of cell death induced by the various compounds on HCT116 cells. […]

For series [11] the following is noted: free pyrophosphate, cited from earlier work.

Molecules are shown by their SMILES. Read-outs that look alike come from different tables or passages of the source.

In the case of `NC1CC=CCC1N.O=P1(O)[O][Pt][O]P(=O)(O)O1` (racemic) [Compound 2, [Pt(dihydrogenpyrophosphato)(1,2-DACHEX)]], the half-inhibitory concentration (IC50) – broadly, the concentration that inhibits the measured activity by half – in [1] was found to be 100 ± 6 µM; in [5], 39 ± 4 µM; in [6] it was 47 ± 6 µM; in [7], 20 ± 2 µM; in [8], 30 ± 3 µM. In addition, the “time at which a small 31P NMR signal of free pyrophosphate is first observed” value in [2] is 120 h; in [3] it was 96 h. In series [4], the “pKa1 (first inflection point, pH*)” value was found to be 2.02. The “pKa2 (second inflection point, pH*)” value in series [4] stood at 4.23.

Turning to `[NH2][Pt]([NH2])([Cl])[Cl]` [CDDP, cisplatin, reference compound], the half-inhibitory concentration (IC50) in [1] was found to be 9 ± 3 µM; in [5], 2 ± 1 µM; in [6] it was 6 µM; in series [7], 9 ± 2 µM; in [8], 4 ± 1 µM.

Regarding `O=P1([O-])OP(=O)([O-])[O][Pt]2([NH]C3CCCC(C3)[NH]2)[O]1.[Na+].[Na+]` (stereo not drawn) [Compound 1, Na2[Pt(pyrophosphato)(cis-1,3-DACH)]], the IC50 in series [1] was found to be 29 µM; in [5], 26 ± 3 µM; in series [6], 23 µM; in series [7], 21 ± 2 µM; in series [8], 15 ± 2 µM. For the same compound, the “time at which a small 31P NMR signal of free pyrophosphate is first observed” value in series [2] is 672 h; in series [3], 168 h. In [4], the “pKa1 (first inflection point, pH*)” value stood at 2.28. The “pKa2 (second inflection point, pH*)” value in series [4] is recorded as 4.55.

Turning to `N[C@@H]1CCCC[C@H]1N.O=P([O-])(O)OP(=O)([O-])O.[Pt+2]` [Compound 3, [Pt(dihydrogenpyrophosphato)(1R,2R-DACH)], reference compound], the IC50 in series [1] came to 100 ± 8 µM; in [5] it was 91 ± 5 µM; in [6] it was 60 ± 8 µM; in series [7] it was 19 ± 4 µM; in series [8] it was 29 ± 5 µM. Besides, the “stability in physiological conditions” value in series [9] is on record as “quite stable”. In addition, the pKa1 in [10] is reported as 2.06. Besides, the pKa2 in [10] was 4.40. The “% viable cells (lower left quadrant, PI-/Annexin V-)” value in the series with HCT116 cells amounted to 84.912%.

As to `O=P1(O)OP(=O)(O)[O][Pt]2([NH]C3CCC(CC3)[NH]2)[O]1` (stereo not drawn) [Compound 4, [Pt(dihydrogenpyrophosphato)(cis-1,4-DACH)]], the IC50 in series [1] was determined as 100 ± 5 µM; in series [5] it was 100 ± 7 µM; in series [6], 72 ± 7 µM; in series [7], 44 ± 3 µM; in [8] it was 46 ± 5 µM. Moreover, the “stability in physiological conditions” value in [9] is “quite stable”. Also, in series [10], the pKa1 is given as 2.03. In addition, in series [10], the pKa2 is 4.47.

As for `O=C1[O][Pt]2([NH][C@@H]3CCCC[C@H]3[NH]2)[O]C1=O` [OXP, oxaliplatin], the half-inhibitory concentration (IC50) in series [1] was 100 ± 5 µM; in series [5] it was 93 ± 6 µM; in series [6] it was 80 µM; in series [7] it was 72 µM; in [8], 54 ± 4 µM.

As for `O=P(O)(O)OP(=O)(O)O` [Pyrophosphate], in series [11] (tetrabasic acid), the pKa1 was 0.85. In series [11], the pKa2 is 1.49, the pKa3 is listed as 5.77 and the pKa4 is 8.22.
